{"source": "patent US8372654B2", "about": "“Method for investigating the fate of a test compound or the stateof a biological system by means of NMR of hyperpolarised NMR active nuclei” (GE Healthcare Limited, priority 2001, dated 2013)", "key": {"[1]": {"assay": "benzoic acid metabolism study: iv administration to anaesthetised rats, urine collected", "type": "in vivo, rat"}, "[2]": {"conditions": "rat, in vivo, iv, 20 mg/kg", "method": "(U-^13C)Paracetamol was administered intravenously at 20 mg/kg (at 0 and 3 hrs) to 4 anaesthetised rats, urine was collected from canulated urethra and bile was collected from canulated bile duct (2 rats only) at 0-3 and 3-6 hours. Bile (3-6 hrs) was extracted with dichloromethane and then fractionated by RP-hplc (C18 Kromasil, 25×1 cm, 5 um) using gradient elution with formic acid in water and formic acid in methanol).\nSeveral metabolites were collected. […] The isolated material was then dried and an aliquot re-analysed by RP hplc indicating a peak purity of 96.7%, monitored by on-line UV detection (at 254 nm) and gave the expected (M+H)+ ion at 240 mass units by on-line electrospray ionisation mass spectrometry (EI-MS)."}}}
{"molecule": "O=[13C](O)c1ccccc1", "note": "[(^13C-carboxyl) Benzoic acid]", "values": [{"measurement": "major metabolite in urine", "setting": "[1]; rat urine after iv 10 mg/Kg at 0 and 2 hrs, isolated by SPE and RP-hplc", "result": "(^13C-carboxy) hippuric acid"}]}
{"molecule": "(U-^13C)Paracetamol", "values": [{"measurement": "metabolite identified in bile", "setting": "[2]", "result": "Paracetamol sulphate"}]}
{"molecule": "(^13C-carboxyl) hippuric acid", "values": [{"measurement": "level measured in urine", "setting": "[1]; rat urine, 0-2 hr collection, after iv (13C-carboxyl) benzoic acid 10 mg/Kg", "result": "approximately 5 mg/ml"}]}
